Data as given in PMC8617031, “Development of a BCL-xL and BCL-2 dual degrader with improved anti-leukemic activity,” (Nature Communications, 2021).
Where “and” joins values, the source holds several entries; their conditions need not be identical. Identical values can stand only once.

Tests used:
[1] = tested on: BCL-xL/PROTAC/VCB ternary complex (HiBit-BCL-xL, HaloTag-VHL); test: NanoBRET intracellular ternary complex formation in 293T cells, BCL-xL; format: cell-based, human; conditions: for NanoBRET ratio (610/450 x1000, background-subtracted), Bcl-xl, Ave / NanoBRET signal (610/450 ratio, background-subtracted), Ave, Bcl-xl: Ave of Read1 and Read2; for NanoBRET ratio (610/450 x1000, background-subtracted), Bcl-xl, Ave / NanoBRET ratio (610/450 x1000, background-subtracted), Bcl-xl, Read1 / NanoBRET ratio (610/450 x1000, background-subtracted), Bcl-xl, Read2: 293T cells, triplicate wells; for NanoBRET signal (610/450 ratio, background-subtracted), Ave, Bcl-xl: per replicate well; for NanoBRET signal (610/450 ratio, background-subtracted), Read1, Bcl-xl / NanoBRET signal (610/450 ratio, background-subtracted), Read2, Bcl-xl: individual replicate wells
Source text: (§1) Plasmids HaloTag-VHL (Cat. No. CS1679C155) and CMV HiBit (Cat. No. CS1956B03) were purchased from Promega. HiBit-BCL-xL and HiBit-BCL-2 were constructed previously. The two mutants (HiBit-BCL-xL-K157-only and HiBit-BCL-xL-K-ko) were constructed through Gibson assembly method. The primer pair (5′-[…]-3′ and 5′-[…]c[…]-3′) and the template Flag-BCL-xL-K157-only or Flag-BCL-xL-K-ko (pDL2129)[2] were used to clone the BCL-xL-K157-only-containing and BCL-xL-K-ko-containing fragments, respectively. The primer pair (5′-[…]g[…]-3′ and 5′-[…]-3′) and pBit3.1-N (Cat. No. N2361, Promega) were used to clone the vector-containing fragment. The PCR fragments were assembled using NEBuilder® HiFi DNA Assembly Master Mix (Cat. No. E2621, NEB, Ipswich, MA, USA). DNA sequences in all these plasmids were authenticated by automatic sequencing. […] After 24 h, 2 × 10^4 transfected cells were seeded into white 96-well tissue culture plates in Gibco™ Opti-MEM™ I Reduced Serum Medium, No Phenol Red (Cat. No. 11-058-021, Fisher) containing 4% FBS with or without HaloTag NanoBRET 618 Ligand (Cat. No. PRN1662, Promega) and incubated overnight at 37 °C, 5% CO2. The following day, serial diluted compounds were added into the medium and plates were incubated at 37 °C, 5% CO2, for 6 h. After treatment, NanoBRET Nano-Glo Substrate (cat. no. N1662, Promega) was added into the medium, and the contents were mixed by shaking the plate for 30 s before measuring donor and acceptor signals on Biotek plate reader. Dual-filtered luminescence was collected with a 450/50 nm bandpass filter (donor, NanoBiT-BCL-XL protein or NanoBiT-BCL-2 protein) and a 610-nm longpass filter (acceptor, HaloTag NanoBRET ligand) using an integration time of 0.5 s. mBRET ratios were calculated following the NanoBRET™ Nano-Glo® Detection System (Cat. No. N1662, Promega).

[2] = tested on: BCL-2/PROTAC/VCB ternary complex (HiBit-BCL-2, HaloTag-VHL); test: NanoBRET intracellular ternary complex formation in 293T cells, BCL-2; format: cell-based, human; conditions: for NanoBRET ratio (610/450 x1000, background-subtracted), Bcl-2, Ave / NanoBRET signal (610/450 ratio, background-subtracted), Ave, Bcl-2: Ave of Read1 and Read2; for NanoBRET ratio (610/450 x1000, background-subtracted), Bcl-2, Ave / NanoBRET ratio (610/450 x1000, background-subtracted), Bcl-2, Read1 / NanoBRET ratio (610/450 x1000, background-subtracted), Bcl-2, Read2: 293T cells, triplicate wells; for NanoBRET signal (610/450 ratio, background-subtracted), Ave, Bcl-2: per replicate well; for NanoBRET signal (610/450 ratio, background-subtracted), Read1, Bcl-2 / NanoBRET signal (610/450 ratio, background-subtracted), Read2, Bcl-2: individual replicate wells
Source text: as §1

Compound	NanoBRET ratio (610/450 x1000, background-subtracted), Bcl-xl, Ave ([1]; 0.333 uM)	NanoBRET ratio (610/450 x1000, background-subtracted), Bcl-xl, Read1 ([1]; 0.333 uM)	NanoBRET ratio (610/450 x1000, background-subtracted), Bcl-xl, Read2 ([1]; 0.333 uM)	NanoBRET ratio (610/450 x1000, background-subtracted), Bcl-xl, Ave ([1]; 1 uM)	NanoBRET ratio (610/450 x1000, background-subtracted), Bcl-xl, Read1 ([1]; 1 uM)	NanoBRET ratio (610/450 x1000, background-subtracted), Bcl-xl, Read2 ([1]; 1 uM)	NanoBRET ratio (610/450 x1000, background-subtracted), Bcl-xl, Ave ([1]; 3 uM)	NanoBRET ratio (610/450 x1000, background-subtracted), Bcl-xl, Read1 ([1]; 3 uM)	NanoBRET ratio (610/450 x1000, background-subtracted), Bcl-xl, Read2 ([1]; 3 uM)	NanoBRET ratio (610/450 x1000, background-subtracted), Bcl-2, Ave ([2]; 0.333 uM)	NanoBRET ratio (610/450 x1000, background-subtracted), Bcl-2, Read1 ([2]; 0.333 uM)	NanoBRET ratio (610/450 x1000, background-subtracted), Bcl-2, Read2 ([2]; 0.333 uM)	NanoBRET ratio (610/450 x1000, background-subtracted), Bcl-2, Ave ([2]; 1 uM)	NanoBRET ratio (610/450 x1000, background-subtracted), Bcl-2, Read1 ([2]; 1 uM)	NanoBRET ratio (610/450 x1000, background-subtracted), Bcl-2, Read2 ([2]; 1 uM)	NanoBRET ratio (610/450 x1000, background-subtracted), Bcl-2, Ave ([2]; 3 uM)	NanoBRET ratio (610/450 x1000, background-subtracted), Bcl-2, Read1 ([2]; 3 uM)	NanoBRET ratio (610/450 x1000, background-subtracted), Bcl-2, Read2 ([2]; 3 uM)	also measured
Cc1ncsc1-c1ccc(C(C)NC(=O)C2CC(O)CN2C(=O)C(NC(=O)CCCC(=O)N2CCN(CC3(C)CCC(c4ccc(Cl)cc4)=C(CN4CCN(c5ccc(C(=O)NS(=O)(=O)c6ccc(NC(CCN7CCOCC7)CSc7ccccc7)c(S(=O)(=O)C(F)(F)F)c6)cc5)CC4)C3)CC2)C(C)(C)C)cc1 (mixture of isomers) [319-C5]	6.339 and 5.781 and 6.072	6.257 and 5.719 and 6.3849	6.422 and 5.844 and 5.759	5.241 and 6.025 and 7.398	5.522 and 5.988 and 7.452	4.96 and 6.062 and 7.344	5.367 and 5.631 and 6.141	5.5804 and 5.686 and 6.375	5.154 and 5.575 and 5.907	5.628 and 6.032 and 6.002	5.8735 and 6.598 and 5.9581	5.383 and 5.466 and 6.046	7.014 and 6.158 and 6.868	6.748 and 6.437 and 7.054	7.2789 and 5.879 and 6.683	6.77 and 7.133 and 6.868	6.63 and 7.268 and 6.8218	6.909 and 6.997 and 6.914	
Cc1ncsc1-c1ccc(C(C)NC(=O)C2CC(O)CN2C(=O)C(NC(=O)CCCCC(=O)N2CCN(CC3(C)CCC(c4ccc(Cl)cc4)=C(CN4CCN(c5ccc(C(=O)NS(=O)(=O)c6ccc(NC(CCN7CCOCC7)CSc7ccccc7)c(S(=O)(=O)C(F)(F)F)c6)cc5)CC4)C3)CC2)C(C)(C)C)cc1 (mixture of isomers) [319-C6]	6.174 and 6.1699 and 6.65	6.062 and 6.008 and 6.406	6.287 and 6.332 and 6.893	8.477 and 7.0143 and 7.515	8.852 and 7.285 and 8.097	8.103 and 6.744 and 6.934	8.009 and 9.063 and 8.852	8.381 and 8.755 and 9.483	7.637 and 9.371 and 8.221	6.191 and 6.524 and 6.882	6.596 and 6.719 and 7.227	5.786 and 6.329 and 6.537	6.728 and 7.064 and 7.162	6.811 and 7.607 and 7.576	6.646 and 6.52 and 6.748	8.027 and 7.6 and 7.992	8.178 and 7.5868 and 7.751	7.877 and 7.613 and 8.232	
Cc1ncsc1-c1ccc(C(C)NC(=O)C2CC(O)CN2C(=O)C(NC(=O)CCCCCC(=O)N2CCN(CC3(C)CCC(c4ccc(Cl)cc4)=C(CN4CCN(c5ccc(C(=O)NS(=O)(=O)c6ccc(NC(CCN7CCOCC7)CSc7ccccc7)c(S(=O)(=O)C(F)(F)F)c6)cc5)CC4)C3)CC2)C(C)(C)C)cc1 (mixture of isomers) [319-C7]	6.383 and 6.41 and 6.027	6.118 and 6.864 and 6.2545	6.648 and 5.956 and 5.8	8.353 and 6.411 and 6.637	7.957 and 6.709 and 6.774	8.749 and 6.113 and 6.499	5.568 and 7.612 and 6.364	5.755 and 8.211 and 6.36	5.382 and 7.013 and 6.368	6.052 and 6.92 and 7.6505	5.966 and 6.845 and 7.7752	6.137 and 6.996 and 7.5258	8.414 and 7.671 and 8.038	8.989 and 7.62 and 8.138	7.839 and 7.721 and 7.939	7.385 and 7.884 and 8.749	7.497 and 8.645 and 8.883	7.2733 and 7.122 and 8.615	
Cc1ncsc1-c1ccc(C(C)NC(=O)C2CC(O)CN2C(=O)C(NC(=O)CCCCCCC(=O)N2CCN(CC3(C)CCC(c4ccc(Cl)cc4)=C(CN4CCN(c5ccc(C(=O)NS(=O)(=O)c6ccc(NC(CCN7CCOCC7)CSc7ccccc7)c(S(=O)(=O)C(F)(F)F)c6)cc5)CC4)C3)CC2)C(C)(C)C)cc1 (mixture of isomers) [319-C8]																			NanoBRET signal (610/450 ratio, background-subtracted), Ave, Bcl-xl ([1]; 0.333 uM): 7.726 and 6.163 and 6.736; NanoBRET signal (610/450 ratio, background-subtracted), Read1, Bcl-xl ([1]; 0.333 uM): 7.612 and 5.878 and 6.37; NanoBRET signal (610/450 ratio, background-subtracted), Read2, Bcl-xl ([1]; 0.333 uM): 7.841 and 6.448 and 7.103; NanoBRET signal (610/450 ratio, background-subtracted), Ave, Bcl-xl ([1]; 1 uM): 7.132 and 7.494 and 7.451; NanoBRET signal (610/450 ratio, background-subtracted), Read1, Bcl-xl ([1]; 1 uM): 7.4 and 7.483 and 8.183; NanoBRET signal (610/450 ratio, background-subtracted), Read2, Bcl-xl ([1]; 1 uM): 6.864 and 7.506 and 6.7195; NanoBRET signal (610/450 ratio, background-subtracted), Ave, Bcl-xl ([1]; 3 uM): 8.664 and 8.41 and 8.787; NanoBRET signal (610/450 ratio, background-subtracted), Read1, Bcl-xl ([1]; 3 uM): 9.315 and 7.583 and 8.729; NanoBRET signal (610/450 ratio, background-subtracted), Read2, Bcl-xl ([1]; 3 uM): 8.012 and 9.238 and 8.844; NanoBRET signal (610/450 ratio, background-subtracted), Ave, Bcl-2 ([2]; 0.333 uM): 6.709 and 6.763 and 6.945; NanoBRET signal (610/450 ratio, background-subtracted), Read1, Bcl-2 ([2]; 0.333 uM): 6.876 and 6.829 and 6.839; NanoBRET signal (610/450 ratio, background-subtracted), Read2, Bcl-2 ([2]; 0.333 uM): 6.543 and 6.698 and 7.051; NanoBRET signal (610/450 ratio, background-subtracted), Ave, Bcl-2 ([2]; 1 uM): 8.276 and 7.6621 and 8.376; NanoBRET signal (610/450 ratio, background-subtracted), Read1, Bcl-2 ([2]; 1 uM): 8.792 and 8.054 and 8.836; NanoBRET signal (610/450 ratio, background-subtracted), Read2, Bcl-2 ([2]; 1 uM): 7.759 and 7.2706 and 7.917; NanoBRET signal (610/450 ratio, background-subtracted), Ave, Bcl-2 ([2]; 3 uM): 8.696 and 8.738 and 7.9326; NanoBRET signal (610/450 ratio, background-subtracted), Read1, Bcl-2 ([2]; 3 uM): 8.912 and 9.6864 and 8.129; NanoBRET signal (610/450 ratio, background-subtracted), Read2, Bcl-2 ([2]; 3 uM): 8.48 and 7.79 and 7.737
